This passage reports Activity, IC50 and inhibition results from ChEMBL document CHEMBL4732176, “Synthesis and biological evaluation of novel N-substituted benzamides as anti-migration agents for treatment of osteosarcoma” (Eur J Med Chem, 2021).

Series [1] is described as follows: Cytotoxicity against human MIHA cells assessed as reduction in cell viability at 40 uM incubated for 48 hrs by MTT assay. Format: cell-based.
The test system of series [2] is U2OS. Nature of the series: Cytotoxicity against human U2OS cells assessed as reduction in cell viability incubated for 48 hrs by MTT assay. Format: functional, cell-based.
Series [3] has as its system MG-63. Kind of series: Cytotoxicity against human MG-63 cells assessed as reduction in cell viability incubated for 48 hrs by MTT assay. Format: functional, cell-based. Particulars: MG-63, 48 h.
Series [4] in a line: Cytotoxicity against human MIHA cells assessed as reduction in cell viability incubated for 48 hrs by MTT assay. The format is cell-based.
In series [5] the target is Focal adhesion kinase 1 (Homo sapiens) (UniProt Q05397). Nature of the series: Inhibition of FAK phosphorylation in human U2OS cells at 5 to 20 uM incubated for 48 hrs by Western blot analysis. Format: cell-based. Conditions: dose 5-20 µM.
Series [6] shares this target. Nature of the series: Inhibition of FAK phosphorylation in human MG-63 cells at 5 to 20 uM incubated for 48 hrs by Western blot analysis. Format: cell-based. Conditions: dose 5-20 µM.

Each structure is given as a SMILES string. Activity calls are given as the source filed them. The rule behind the calls is not given here. Some results are limits rather than exact numbers.

Chain of Focal adhesion kinase 1 (Homo sapiens) (Q05397 2-1052 limits assumed): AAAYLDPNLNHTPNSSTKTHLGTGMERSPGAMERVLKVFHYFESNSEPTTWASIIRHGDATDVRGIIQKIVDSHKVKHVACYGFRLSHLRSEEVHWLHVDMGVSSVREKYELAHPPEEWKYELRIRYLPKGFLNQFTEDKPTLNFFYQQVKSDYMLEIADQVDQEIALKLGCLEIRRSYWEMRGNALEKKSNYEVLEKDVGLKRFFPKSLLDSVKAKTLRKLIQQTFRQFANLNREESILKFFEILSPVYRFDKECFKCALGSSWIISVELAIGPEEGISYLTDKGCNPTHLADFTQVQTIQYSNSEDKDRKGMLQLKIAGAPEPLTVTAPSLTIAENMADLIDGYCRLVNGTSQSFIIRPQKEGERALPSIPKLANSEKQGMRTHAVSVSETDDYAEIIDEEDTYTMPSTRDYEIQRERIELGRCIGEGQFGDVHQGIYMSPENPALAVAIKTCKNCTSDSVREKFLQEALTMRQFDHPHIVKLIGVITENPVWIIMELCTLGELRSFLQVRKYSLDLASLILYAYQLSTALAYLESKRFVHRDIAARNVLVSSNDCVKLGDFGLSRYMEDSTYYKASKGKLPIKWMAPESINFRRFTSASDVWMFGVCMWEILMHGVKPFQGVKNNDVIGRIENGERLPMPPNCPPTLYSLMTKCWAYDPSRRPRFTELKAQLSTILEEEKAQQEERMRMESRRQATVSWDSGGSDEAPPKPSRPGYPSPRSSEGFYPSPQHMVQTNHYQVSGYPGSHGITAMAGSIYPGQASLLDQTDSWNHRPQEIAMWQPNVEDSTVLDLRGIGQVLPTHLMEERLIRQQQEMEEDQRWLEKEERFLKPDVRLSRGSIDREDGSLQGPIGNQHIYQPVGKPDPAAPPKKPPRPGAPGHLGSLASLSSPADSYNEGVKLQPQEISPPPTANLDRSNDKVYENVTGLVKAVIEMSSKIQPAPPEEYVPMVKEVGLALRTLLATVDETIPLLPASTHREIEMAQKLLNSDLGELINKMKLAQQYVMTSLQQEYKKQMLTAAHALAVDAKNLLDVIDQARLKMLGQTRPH

Consider `COc1ccc(NC(=O)n2ncc3c(NC(=O)c4cc(Cl)ccc4O)cccc32)cc1`, for which the Activity result in series [1] is “Non-Toxic”.
Take `O=C(Nc1cc(C(F)(F)F)cc(C(F)(F)F)c1)c1cc(Cl)ccc1O` [IMD-0354]: the IC50 in series [2] is 50.9 µM; in series [3] it was 48.7 µM; in series [4] it was above 100 µM. For the same compound, the Activity entry in series [1] was “Non-Toxic”.
As to `O=C(Nc1cccc2c1cnn2C(=O)N1CCOCC1)c1cc(Cl)ccc1O`, the Activity result in series [1] is recorded as “Non-Toxic”.
Same read-out and setting: the value for `O=C(Nc1cccc2nn(CCO)cc12)c1cc(Cl)ccc1O` was “Non-Toxic”.
On the same count and under the same terms, for `O=C(O)CCn1cc2c(NC(=O)c3cc(Cl)ccc3O)cccc2n1` the value was “Non-Toxic”; for `O=C(Nc1cccc2c1cnn2C(=O)c1c(Cl)cccc1Cl)c1cc(Cl)ccc1O`, “Non-Toxic”.
In the case of `CN(C)C(=O)Cn1cc2c(NC(=O)c3cc(Cl)ccc3O)cccc2n1`, in series [1], the Activity result is “Non-Toxic”.
Still for that read-out and setting: the value for `O=C(Nc1cccc2cc[nH]c12)c1cc(Cl)ccc1O` was “Non-Toxic”.
On the same count and under the same terms, for `O=C(Nc1cccc2[nH]ncc12)c1cc(Cl)ccc1O` the value was “Non-Toxic”.
Take `O=C(Nc1cccc2c1cnn2CCO)c1cc(Cl)ccc1O`: in series [1], the Activity result was “Non-Toxic”.
On the same count and under the same terms, for `CN(C)C(=O)Cn1ncc2c(NC(=O)c3cc(Cl)ccc3O)cccc21` the value was “Non-Toxic”; for `O=C(Nc1ccc2[nH]ncc2c1)c1cc(Cl)ccc1O`, “Non-Toxic”.
Consider `O=C(Nc1ccc2c(cnn2C(=O)c2ccccc2)c1)c1cc(Cl)ccc1O`, for which the inhibition entry in series [5] and in series [6] was “Active” in each case.
For the compound `O=C(Nc1cccc2cn[nH]c12)c1cc(Cl)ccc1O`, the Activity entry in series [1] was “Non-Toxic”.
Same read-out and setting: for `COC(=O)CCn1ncc2c(NC(=O)c3cc(Cl)ccc3O)cccc21` the value was “Non-Toxic”; for `O=C(O)CCn1ncc2c(NC(=O)c3cc(Cl)ccc3O)cccc21`, “Non-Toxic”; for `COC(=O)CCn1cc2c(NC(=O)c3cc(Cl)ccc3O)cccc2n1`, “Non-Toxic”.
`O=C(Nc1ccc2[nH]ccc2c1)c1cc(Cl)ccc1O`: the Activity entry in series [1] was “Non-Toxic”.
The same measure, in the same setting: the value for `O=C(Nc1cccc2[nH]ccc12)c1cc(Cl)ccc1O` was “Non-Toxic”.
The same measure, in the same setting: for `CN(C)c1ccc(C(=O)n2ncc3c(NC(=O)c4cc(Cl)ccc4O)cccc32)cc1` the value was “Non-Toxic”; for `O=C(Nc1ccc2cn[nH]c2c1)c1cc(Cl)ccc1O`, “Non-Toxic”.
`CN(C)C(=O)n1ncc2c(NC(=O)c3cc(Cl)ccc3O)cccc21`: the Activity entry in series [1] is given as “Non-Toxic”.
